# Source: patent publication US20250154686A1, “COMPOUND LIBRARY” (CHUGAI SEIYAKU KABUSHIKI KAISHA, priority 2021, published 2025)
# Molecular target: T1, Bcl-2 protein (Recombinant Human Bcl-2 Protein) (Homo sapiens, UniProt P10415)
# T1 construct: purchased Novus Biologicals NBP2-34889
# Assay: AS-MS evaluation of binding of the Example 4 mixture library (1200 compounds/well) to Bcl-2, ASMS ratio (%)
# How it was run: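 Affinity-selection MS: 1200 cpds/well, 20 nM each; hBcl-2 20 μM; 25 mM Tris pH 7.4/150 mM NaCl/0.025% Tween-20/1 mM DTT; 1 h, 23 °C, dark; P-2 size-exclusion spin, MeCN:MeOH 1:1 extraction; RP LC/MS; ratio vs no-protein STD and SEC blank.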
# [1] = AS-MS, Example 4 mixture library, Bcl-2, replicate n = 1
# [2] = AS-MS, Example 4 mixture library, Bcl-2, replicate n = 2
# [3] = AS-MS, mixture of 1200 compounds/well, Bcl-2 protein, replicate n = 1
# [4] = AS-MS, mixture of 1200 compounds/well, Bcl-2 protein, replicate n = 2
# [5] = replicate n = 1, mixture library, value belongs to the MS peak assigned to the compound
# [6] = replicate n = 2, mixture library, value belongs to the MS peak assigned to the compound
# T1 sequence (P10415 whole entry): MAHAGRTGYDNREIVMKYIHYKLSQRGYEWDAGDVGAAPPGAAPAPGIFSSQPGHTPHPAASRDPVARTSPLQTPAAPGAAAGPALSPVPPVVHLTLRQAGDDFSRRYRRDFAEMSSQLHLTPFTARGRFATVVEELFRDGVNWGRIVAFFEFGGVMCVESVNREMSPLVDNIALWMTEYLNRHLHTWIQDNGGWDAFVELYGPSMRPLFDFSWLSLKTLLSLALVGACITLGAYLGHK
smiles,measurement,setting,value
"CCOc1cncc(-c2ccccc2CCC(=O)N2CCN(c3ccc(C(=O)NS(=O)(=O)c4ccc(NCCSc5ccccc5)c(C(F)(F)F)c4)cc3)CC2)c1 [Compound B2R034-01, 4-[4-[3-[2-(5-Ethoxypyridin-3-yl)phenyl]propanoyl]piperazin-1-yl]-N-[4-(2-phenylsulfanylethylamino)-3-(trifluoromethyl)phenyl]sulfonylbenzamide]",ASMS ratio (%) n = 1,[1],0.1%
same,ASMS ratio (%) n = 2,[2],−1.3%
"CCOc1cncc(-c2ccc(CN3CCN(c4ccc(C(=O)NS(=O)(=O)c5ccc(NCCSc6ccccc6)c(C(F)(F)F)c5)nn4)CC3)c3ccccc23)c1 [Compound B2R092-01, 6-[4-[[4-(5-Ethoxypyridin-3-yl)naphthalen-1-yl]methyl]piperazin-1-yl]-N-[4-(2-phenylsulfanylethylamino)-3-(trifluoromethyl)phenyl]sulfonylpyridazine-3-carboxamide]",ASMS ratio (%) n = 1,[1],16.0%
same,ASMS ratio (%) n = 2,[2],−1.3%
"CCOc1cncc(-c2csc(CN3CCN(c4ccc(C(=O)NS(=O)(=O)c5ccc(NCCSc6ccccc6)c(C(F)(F)F)c5)nn4)CC3)c2)c1 [Compound B2R094-01, 6-[4-[[4-(5-Ethoxypyridin-3-yl)thiophen-2-yl]methyl]piperazin-1-yl]-N-[4-(2-phenylsulfanylethylamino)-3-(trifluoromethyl)phenyl]sulfonylpyridazine-3-carboxamide]",ASMS ratio (%) n = 1,[1],18.8%
same,ASMS ratio (%) n = 2,[2],11.9%
"CCOc1cccc(-c2ccccc2CN2CCN(c3ccc(C(=O)NS(=O)(=O)CCC(F)(F)F)cc3)CC2)c1 [Compound B2N045-01, 4-[4-[[2-(3-Ethoxyphenyl)phenyl]methyl]piperazin-1-yl]-N-(3,3,3-trifluoropropylsulfonyl)benzamide]",ASMS ratio (%) n = 1,[1],0.0%
same,ASMS ratio (%) n = 2,[2],0.1%
CCCNC(=O)c1ccc(N2CCN(C(=O)c3ccc(-c4cccc(OCC)c4)c(C)c3)CC2)nn1 [Compound B1M003-01],ASMS ratio (%) n = 1,[3],−1.9%
same,ASMS ratio (%) n = 2,[4],2.0%
"CCOc1cccc(-c2ccc(CN3CCN(c4ccc(C(=O)NS(=O)(=O)CCC(F)(F)F)cc4)CC3)c(OC)c2)c1 [Compound B2N053-01, 4-[4-[[4-(3-Ethoxyphenyl)-2-methoxyphenyl]methyl]piperazin-1-yl]-N-(3,3,3-trifluoropropylsulfonyl)benzamide]",ASMS ratio (%) n = 1,[1],0.0%
same,ASMS ratio (%) n = 2,[2],1.4%
"CCOc1cccc(-c2cc(C(=O)N3CCN(c4ccc(C(=O)NS(=O)(=O)C(C)(C)C)cc4)CC3)cc(C(F)(F)F)c2)c1 [Compound B2L039-01, N-tert-Butylsulfonyl-4-[4-[3-(3-ethoxyphenyl)-5-(trifluoromethyl)benzoyl]piperazin-1-yl]benzamide]",ASMS ratio (%) n = 1,[5],0.0%
same,ASMS ratio (%) n = 2,[6],0.0%
"CCOc1cncc(-c2csc(C(=O)N3CCN(c4ccc(C(=O)NS(=O)(=O)C(C)(C)C)cc4)CC3)c2)c1 [Compound B2L024-01, N-tert-Butylsulfonyl-4-[4-[4-(5-ethoxypyridin-3-yl)thiophene-2-carbonyl]piperazin-1-yl]benzamide]",ASMS ratio (%) n = 1,[5],0.0%
same,ASMS ratio (%) n = 2,[6],0.0%
CCCNC(=O)c1ccc(N2CCN(C(=O)c3ccc(-c4cncc(OCC)c4)c4ccccc34)CC2)nn1 [Compound B1M014-01],ASMS ratio (%) n = 1,[3],4.1%
same,ASMS ratio (%) n = 2,[4],0.4%
"CCOc1cccc(-c2cc(C(=O)N3CCN(c4ccc(C(=O)NS(=O)(=O)c5ccc(NCCSc6ccccc6)c(C(F)(F)F)c5)cc4)CC3)cc(C(F)(F)F)c2)c1 [Compound B2R039-01, 4-[4-[3-(3-Ethoxyphenyl)-5-(trifluoromethyl)benzoyl]piperazin-1-yl]-N-[4-(2-phenylsulfanylethylamino)-3-(trifluoromethyl)phenyl]sulfonylbenzamide]",ASMS ratio (%) n = 1,[1],9.7%
same,ASMS ratio (%) n = 2,[2],−4.8%
"CCOc1cccc(-c2cc(CN3CCN(c4ccc(C(=O)NS(C)(=O)=O)cc4)CC3)cc(C(F)(F)F)c2)c1 [Compound B2I061-01, 4-[4-[[3-(3-Ethoxyphenyl)-5-(trifluoromethyl)phenyl]methyl]piperazin-1-yl]-N-methylsulfonylbenzamide]",ASMS ratio (%) n = 1,[5],−0.8%
same,ASMS ratio (%) n = 2,[6],0.5%
"CCOc1cccc(-c2ccccc2CCC(=O)N2CCN(c3ccc(C(=O)NS(=O)(=O)CCC(F)(F)F)nn3)CC2)c1 [Compound B2N011-01, 6-[4-[3-[2-(3-Ethoxyphenyl)phenyl]propanoyl]piperazin-1-yl]-N-(3,3,3-trifluoropropylsulfonyl)pyridazine-3-carboxamide]",ASMS ratio (%) n = 1,[1],0.0%
same,ASMS ratio (%) n = 2,[2],0.0%
"CCOc1cncc(-c2ccc(CN3CCN(c4ccc(C(=O)NS(=O)(=O)C(C)(C)C)cc4)CC3)c(CC)c2)c1 [Compound B2L050-01, N-tert-Butylsulfonyl-4-[4-[[4-(5-ethoxypyridin-3-yl)-2-ethylphenyl]methyl]piperazin-1-yl]benzamide]",ASMS ratio (%) n = 1,[5],0.0%
same,ASMS ratio (%) n = 2,[6],0.0%
"CCOc1cncc(C#Cc2cc(C(=O)N3CCN(c4ccc(C(=O)N(C)CC56CC7CC(CC(C7)C5)C6)nn4)CC3)cc(C(F)(F)F)c2)c1 [Compound B3A020-01, N-(1-Adamantylmethyl)-6-[4-[3-[2-(5-ethoxypyridin-3-yl)ethynyl]-5-(trifluoromethyl)benzoyl]piperazin-1-yl]-N-methylpyridazine-3-carboxamide]",ASMS ratio (%) n = 1,[3],7.5%
same,ASMS ratio (%) n = 2,[4],−3.2%
"CCOc1cncc(C#Cc2ccccc2CN2CCN(c3ccc(C(=O)NS(=O)(=O)CCC(F)(F)F)cc3)CC2)c1 [Compound B2N070-01, 4-[4-[[2-[2-(5-Ethoxypyridin-3-yl)ethynyl]phenyl]methyl]piperazin-1-yl]-N-(3,3,3-trifluoropropylsulfonyl)benzamide]",ASMS ratio (%) n = 1,[1],0.0%
same,ASMS ratio (%) n = 2,[2],0.0%
"CCOc1cccc(C#Cc2ccccc2C(=O)N2CCN(c3ccc(C(=O)NS(=O)(=O)C(C)(C)C)cc3)CC2)c1 [Compound B2L029-01, N-tert-Butylsulfonyl-4-[4-[2-[2-(3-ethoxyphenyl)ethynyl]benzoyl]piperazin-1-yl]benzamide]",ASMS ratio (%) n = 1,[5],0.0%
"CCOc1cncc(-c2ccc(CN3CCN(c4ccc(C(=O)NS(C)(=O)=O)cc4)CC3)cc2F)c1 [Compound B2I052-01, 4-[4-[[4-(5-Ethoxypyridin-3-yl)-3-fluorophenyl]methyl]piperazin-1-yl]-N-methylsulfonylbenzamide]",ASMS ratio (%) n = 1,[5],0.0%
same,ASMS ratio (%) n = 2,[6],0.0%
CCCNC(=O)c1ccc(N2CCN(C(=O)c3cc(-n4cc(-c5cccc(OCC)c5)cn4)cc(C(F)(F)F)c3)CC2)nn1 [Compound B1M021-01],ASMS ratio (%) n = 1,[3],0.0%
same,ASMS ratio (%) n = 2,[4],0.0%
"CCOc1cncc(-c2cnn(-c3cc(C(=O)N4CCN(c5ccc(C(=O)NS(=O)(=O)CCC(F)(F)F)nn5)CC4)cc(C(F)(F)F)c3)c2)c1 [Compound B2N022-01, 6-[4-[3-[4-(5-Ethoxypyridin-3-yl)pyrazol-1-yl]-5-(trifluoromethyl)benzoyl]piperazin-1-yl]-N-(3,3,3-trifluoropropylsulfonyl)pyridazine-3-carboxamide]",ASMS ratio (%) n = 1,[1],0.0%
same,ASMS ratio (%) n = 2,[2],0.0%
CCOc1cccc(-c2cc(CN3CCN(c4ccc(C(=O)NS(=O)(=O)CCC(F)(F)F)cc4)CC3)cc(OCC)c2)c1 [Compound B2N055-01],ASMS ratio (%) n = 1,[1],0.0%
same,ASMS ratio (%) n = 2,[2],0.0%
"CCOc1cccc(-c2csc(CN3CCN(c4ccc(C(=O)NS(=O)(=O)c5ccc(NCCSc6ccccc6)c(C(F)(F)F)c5)cc4)CC3)c2)c1 [Compound B2R067-01, 4-[4-[[4-(3-Ethoxyphenyl)thiophen-2-yl]methyl]piperazin-1-yl]-N-[4-(2-phenylsulfanylethylamino)-3-(trifluoromethyl)phenyl]sulfonylbenzamide]",ASMS ratio (%) n = 1,[1],8.0%
same,ASMS ratio (%) n = 2,[2],0.0%
"CCOc1cncc(-c2ccc(C(C)N3CCN(c4ccc(C(=O)NS(=O)(=O)c5ccc(NCCSc6ccccc6)c(C(F)(F)F)c5)cc4)CC3)cc2)c1 (centres unmarked) [Compound B2R098-01, 4-[4-[1-[4-(5-Ethoxypyridin-3-yl)phenyl]ethyl]piperazin-1-yl]-N-[4-(2-phenylsulfanylethylamino)-3-(trifluoromethyl)phenyl]sulfonylbenzamide]",ASMS ratio (%) n = 1,[1],9.2%
same,ASMS ratio (%) n = 2,[2],7.5%
"CCOc1cccc(-c2ccc(C(C)N3CCN(c4ccc(C(=O)NS(=O)(=O)c5ccc(NCCSc6ccccc6)c(C(F)(F)F)c5)cc4)CC3)cc2)c1 (centres unmarked) [Compound B2R097-01, 4-[4-[1-[4-(3-Ethoxyphenyl)phenyl]ethyl]piperazin-1-yl]-N-[4-(2-phenylsulfanylethylamino)-3-(trifluoromethyl)phenyl]sulfonylbenzamide]",ASMS ratio (%) n = 1,[1],6.6%
same,ASMS ratio (%) n = 2,[2],−7.8%
CCOc1cncc(-c2ccc(C(=O)N3CCN(c4ccc(C(=O)NS(=O)(=O)C(C)(C)C)nn4)CC3)cc2F)c1 [Compound B2L006-01],ASMS ratio (%) n = 1,[5],0.0%
same,ASMS ratio (%) n = 2,[6],0.0%
